The text below walks through data of article PMC8157322, “Gd(III)–Pt(IV) theranostic contrast agents for tandem MR imaging and chemotherapy” (Chemical Science, 2020).

A short description of series [1]: Relaxivity after incubation in 5 mM GSH in PBS. Type of series: physicochemical. The conditions noted are these: 1.41 T, PBS with 5 mM glutathione, 37 °C. The procedure: This is possibly due to an increase in the rotational correlation time (τR) or a change in the inner sphere hydration number (q) of Gd(III). The differences in relaxivity of GP1 and GP2 compared to 1 offers the possibility of monitoring reduction of the agents by MR at both high and low field strength. To test this, GP1, GP2, and 1 were incubated in 5 mM GSH in PBS and the relaxivity was measured (see ESI ^†). The relaxivity of each converged to the same value (r1 of 4.4, 4.5, and 4.6 mM^−1 s^−1 for 1, GP1, and GP2 respectively), indicating the same Gd(III) species was formed after reduction. The significant change in r1 upon reduction of GP1 and GP2 theoretically could be used to monitor intracellular reduction by MR. However, further testing needs to be done to determine if these agents are suitable for this application.
(§1) Fig. S2 Graph of r1 of (A) GP1 measured at 1.41 T (B) GP1 measured at 7 T (C) GP2 measured at 1.41 T
(D) GP2 measured at 7 T (E) 1 measured at 1.41 T (F) 1 measured at 7 T. All measurements were taken
in PBS at 37 °C (G) 1 measured at 1.41 T with 5 mM GSH (H) GP1 measured at 1.41 T with 5 mM GSH
and (I) GP2 measured at 1.41 T with 5 mM GSH.
(§2) Table S1. r1 of GP1, GP2, and 1 in PBS with 5 mM glutathione at 37 °C
(§3) GP1 (5 mM GSH) GP2 (5 mM GSH) 1 (5 mM GSH)

The nature of series [2]: Aqueous solubility (qualitative). Type of series: physicochemical. The conditions noted are these: aqueous solutions / solvents.
In series [3] the test system is HeLa cells. The series can be described thus: Cell viability assay (CellTiter-Glo 2.0). The settings on record: 48 h incubation. Type of series: cell-based. Here is the method:
(§4) To assess the cytotoxicity of GP1 and GP2in vitro, cell viability assays were performed to determine the IC50 concentrations in three cancer cell lines (A2780, HeLa, and MCF-7). Table 2 summarizes the IC50 concentrations of both agents compared to those of cisplatin and carboplatin. […] For all cell lines, GP1 was less toxic than cisplatin but followed the same trend of highest toxicity in A2780 cells and least toxic in MCF-7 cells. GP1 releases cisplatin intracellularly, therefore the apparent difference in toxicity of the two is likely due to decreased cell permeability of GP1 caused by the Gd(III) complex. However, because GP1 is inert in the extracellular matrix, higher doses can be safely administered to account for the decreased cell permeability. […]
(§5) lines were grown in a humidified incubator at 37 °C and 5% CO2 and were harvested using 0.25% TrypLE. Cells were grown for 24 hours after plating before each experiment. All solutions were filtered through […] sterile filters before use.
(§6) Viability Assays. A2780, HeLa, and MCF-7 cells were plated at a density of 3,000 cells per well (100 µL) in an opaque white 96-well plate. Cells were dosed with 100 µL of solutions of GP1, GP2, cisplatin, or carboplatin in MEM and incubated for 48 hours (GP1 or cisplatin) or 72 hours (GP2 or carboplatin). After incubation, 50 µL CellTiter-Glo 2.0 (Promega, Madison, WI) was added to each well and the assay was carried out following the manufacturer’s protocol.
(§7) Luminescence of the wells was measured using a Synergy H1 microplate reader (BioTek, Winooski, VT). Viability was determined by comparing luminescence readings of the cells treated with agent to untreated control cells. […]

Another series relates to A2780 cells. The series can be described thus: Cell viability assay (CellTiter-Glo 2.0). The settings on record: A2780, 48 h incubation. The format is cell-based. The procedure:
as §4, §5, §6, §7

The next series has as its system MCF-7 cells. The series can be described thus: Cell viability assay (CellTiter-Glo 2.0). The format is cell-based. The settings on record: MCF-7, 48 h incubation. Here is the method: as §4, §5, §6, §7
Series [4] is described as follows: Stability in aqueous media monitored by HPLC-MS. The format is physicochemical. Here is the method: To ensure both agents remain stable in aqueous media under various conditions, they were dissolved in PBS, two types of cell culture media (MEM and RPMI-1640), pH 5 H2O, and porcine live esterase (PLE) in PBS and monitored over time by HPLC-MS. […]
Stability of GP1 and GP2 in various aqueous media. Aliquots of GP1 and GP2 were prepared from a stock with known mass checked by ICP-MS. An aliquot of each was dissolved in H2O and analyzed by HPLC-MS using an Atlantis C18 column (4.6 × 250 mm, 5 μm) and the following method: MeCN held at 0% for 3 min followed by a 15 min ramp to 100% MeCN (GP1 retention time: 10.9 min, GP2 retention time: 11.6 min). Aliquots of both were additionally dissolved in PBS, MEM, RPMI-1640, pH 5 H2O, PBS with 10 units/mL porcine liver esterase, 5 mM glutathione, and 5 mM sodium ascorbate, incubated in a shaker at 37 °C, and were analyzed by HPLC-MS at different time points using the same method. At each time point, the area of the peak of GP1 or GP2 was determined by integration and compared to the area of the peaks in […]

Series [5] has as its system HeLa cells. The series can be described thus: MR imaging of cell pellets at 7 T. The format is cell-based. The settings on record: 6 h incubation, cisplatin 15 μM, 1 100 μM, GP1 60 μM, GP2 250 μM.
Series [6] in a line: T1/T2 relaxivity measurements in PBS. The format is physicochemical. The conditions noted are these: 37 °C. The procedure: The T1 relaxivity (r1) and T2 relaxivity (r2) of 1, GP1, and GP2 were measured at both low (1.41 T) and high (7 T) magnetic field strength in phosphate-buffered saline (PBS) to quantify how well they behave as MR contrast agents. […] The relaxivity values for 1 are well within the range of what is expected for a small molecule Gd(III) complex.[34] […] At 7 T, there was little change in r1 for both agents, while both r2 values increased, as expected. […]
solution. These capillaries were imaged using a Bruker PharmaScan 7 T MR imaging spectrometer (Bruker BioSpin, Billerica, MA, USA). T1 relaxation times were measured using a rapid-acquisition rapid-echo (RARE-VTR) T1-map pulse sequence with static TE (10 ms) and […]
parameters were as follows: field of view (FOV) = 25 x 25 mm2, matrix size (MTX) = 256 x 256, number of axial slices = 5, slice thickness (SI) = 1.0 mm, and averages (NEX) = 4. T1 analysis was carried out using the image sequence analysis tool in Paravision 5.0 pl2 software (Bruker, Billerica, MA, USA) with monoexponential curve-fitting of image intensities of selected regions of interest (ROIs) for each axial slice. […]
as §1
(D) GP2 measured at 7 T (E) 1 measured at 1.41 T (F) 1 measured at 7 T. All measurements were taken in PBS at 37 °C (G) 1 measured at 1.41 T with 5 mM GSH (H) GP1 measured at 1.41 T with 5 mM GSH and (I) GP2 measured at 1.41 T with 5 mM GSH.
as §2, §3

A value given as a limit tells only on which side of the number the result lay.

For `[NH2][Pt]([NH2])([OH])([Cl])([Cl])[O]C(=O)CCCCCN1CCN2CCN3CCN(CC1)CC(=O)[O][Gd]([O]C(=O)C2)[O]C(=O)C3` [GP1], the “r1 with 5 mM GSH” value in series [1] came to 4.5 mM⁻¹ s⁻¹. Besides, in series [2], the Solubility entry was “readily soluble in aqueous solutions”. The IC50 in the series with HeLa cells [3] turned out to be 49.3 ± 1.3 µM; in the series with A2780 cells it was 29.8 ± 2.5 µM; with MCF-7 cells it was 113 ± 4 µM. In addition, in series [4] (MEM, 37 °C, at 48 hours), the “Agent intact in MEM” value is listed as at least 92%. The “Stability in PBS” value in series [4] (PBS, 37 °C, over 48 hours) was “completely stable”. For the same compound, the “Agent reduced to Pt(II) in RPMI-1640” value in series [4] (RPMI-1640 (0.003 mM GSH), 37 °C, within 48 hours) is given as 33%. Besides, the “Agent intact in RPMI-1640” value in series [4] (RPMI-1640, 37 °C, at 6 hours) is given as at least 96%. Moreover, in series [4] (pH 5 H2O, 37 °C, over 48 hours), the “Stability in pH 5 H2O” value is listed as “completely stable”. The “T1 of cell pellet” value with HeLa cells [5] was 1557 ± 17 ms. Further, the “Δ R1 (increase in R1 vs untreated control)” value in the series with HeLa cells [5] was determined as 48%. Moreover, the “r1 (T1 relaxivity)” value in series [6] (1.41 T) was 7.0 mM⁻¹ s⁻¹; in series [6] (7 T), 7.1 mM⁻¹ s⁻¹.
